Reference: article PMC6934184, “Selective DNA-PKcs inhibition extends the therapeutic index of localized radiotherapy and chemotherapy” (The Journal of Clinical Investigation, 2019)

Target: T1, TEC (Homo sapiens, UniProt P42680)
T1 construct: purchased Thermo Fisher Scientific (Life Technologies) SelectScreen
Test: SelectScreen LanthaScreen
Type: binding
Settings: read-out: % displacement
Procedure, shortened: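 SelectScreen broad panel; activity (Z'LYTE, Adapta) plus binding formats. ATP: Km app for CSF1R Z'LYTE; 10 for CAMK1 Adapta. Readout = % per kinase.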

T1 sequence (P42680 whole entry): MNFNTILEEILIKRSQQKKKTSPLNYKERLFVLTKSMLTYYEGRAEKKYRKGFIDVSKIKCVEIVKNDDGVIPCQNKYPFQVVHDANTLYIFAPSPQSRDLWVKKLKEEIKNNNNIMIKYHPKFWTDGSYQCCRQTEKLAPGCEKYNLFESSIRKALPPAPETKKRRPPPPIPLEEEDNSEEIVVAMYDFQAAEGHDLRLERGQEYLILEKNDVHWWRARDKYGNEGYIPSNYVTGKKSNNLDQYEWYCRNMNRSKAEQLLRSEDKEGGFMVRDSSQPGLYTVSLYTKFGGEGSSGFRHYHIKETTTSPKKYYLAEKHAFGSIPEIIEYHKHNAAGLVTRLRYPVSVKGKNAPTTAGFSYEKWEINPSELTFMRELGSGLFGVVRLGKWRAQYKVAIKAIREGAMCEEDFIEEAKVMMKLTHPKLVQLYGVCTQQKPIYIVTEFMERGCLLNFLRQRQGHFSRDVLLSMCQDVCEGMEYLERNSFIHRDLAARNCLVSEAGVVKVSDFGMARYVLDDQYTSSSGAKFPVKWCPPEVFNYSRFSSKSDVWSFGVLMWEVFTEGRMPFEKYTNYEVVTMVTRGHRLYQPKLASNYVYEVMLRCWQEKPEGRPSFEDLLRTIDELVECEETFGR

CN(C(=O)CN1CCOCC1)c1ccc2sc3c(-c4cccc5c(=O)cc(N6CC7CCC(C6)O7)oc45)cccc3c2c1 [NU5455]
inhibition at 1 µM: 8.1%
